The results in this text go back to ChEMBL document CHEMBL1122965, “The pKa of butaclamol and the mode of butaclamol binding to central dopamine receptors” (J Med Chem, 1985).

The target in this experiment is Dopamine receptor (Homo sapiens) (UniProt P14416+P35462+P21918+P21917+P21728).

Description: Compound was evaluated for its binding affinity towards Dopamine receptor

On to `c1ccc([C@H]2CN3CCC[C@H]3c3ccccc32)cc1`, for which the pKa turned out to be 9.12.
The value for `CC(C)(C)[C@]1(O)CCN2C[C@@H](c3ccccc3)c3ccccc3[C@@H]2C1` was 7.03.
